Measured values reported in PubChem BioAssay AID651771 (Broad Institute, 2012).
Values joined by “and” are separate entries in the source; they are usually repeats but may differ in a detail not shown here. Equal values may be shown once. Results filed as inconclusive are left out.

System: SK-MEL-5 DCT mRNA qPCR, delta-delta-Ct, overnight
Assay: DCT transcript decrease in melanoma cells – cell-based, SK-MEL-5, RT-qPCR, dry powder samples, orthogonal assay for MITF inhibitor project, dose response (AID 651771)

Work on `CC(C)N1CCN(C2=C(Nc3ccc(F)cc3)C(=O)c3ccccc3C2=O)CC1` yielded an AC40 of 2.9 µM.
With `CCN1CCN(C2=C(NC(=O)c3ccccc3)C(=O)c3ccccc3C2=O)CC1` the AC40 was 0.884 µM.
In the case of `C=CCNC1=C(Cl)C(=O)c2ccccc2C1=O`, the AC40 is reported as 1 µM.
`O=C(NC1=C(Cl)C(=O)c2ccccc2C1=O)c1ccccc1` gave an AC40 of 0.336 µM.
`NC1=C(NS(=O)(=O)c2ccc(Br)cc2)C(=O)c2ccccc2C1=O` was tested, and the AC40 was 12.8 µM.
Work on `O=C1C(Nc2ccc(Cl)cc2)=C(N2CCCC2)C(=O)c2ccccc21` yielded an AC40 of 9.53 µM.
Work on `NC1=CC(=O)c2ccccc2C1=O` yielded an AC40 of 0.966 µM.
With `O=C1C=C(Nc2ccccc2)C(=O)c2ccccc21` the AC40 was 0.302 µM and 0.325 µM.
In the case of `COC1=C(Nc2ccccc2)C(=O)c2ccccc2C1=O`, the AC40 is reported as 0.838 µM.
`NC1=C(NC(=O)c2ccccc2)C(=O)c2ccccc2C1=O` showed an AC40 of 1.73 µM.
Molecule `O=C1C=C(NS(=O)(=O)c2ccccc2)C(=O)c2ccccc21` has an AC40 of 4.06 µM.
With `NC1=C(NS(=O)(=O)c2cccs2)C(=O)c2ccccc2C1=O` the AC40 was 2.01 µM.
In the case of `COC1=C(NS(=O)(=O)c2ccc(Br)cc2)C(=O)c2ccccc2C1=O`, the AC40 is reported as 8.65 µM.
`Cc1ccc(NC2=CC(=O)c3ccccc3C2=O)cc1` showed an AC40 of 0.277 µM.
With `CCN1CCN(C2=C(Nc3ccc(F)cc3F)C(=O)c3ccccc3C2=O)CC1` the AC40 was 4.78 µM.
Molecule `CN1CCN(C2=C(NS(=O)(=O)c3ccc(Br)s3)C(=O)c3ccccc3C2=O)CC1` has an AC40 of 1.68 µM.
`COc1ccc(NC2=C(N3CCCCC3)C(=O)c3ccccc3C2=O)cc1` showed an AC40 of 12.8 µM.
`CCN1CCN(C2=C(NS(=O)(=O)c3ccc(Br)cc3)C(=O)c3ccccc3C2=O)CC1` was tested, and the AC40 was 3.38 µM.
Work on `NS(=O)(=O)c1ccc(NC2=CC(=O)c3ccccc3C2=O)cc1` yielded an AC40 of 0.0555 µM.
For `Cc1nc2ccccc2n1/N=C/c1ccc([N+](=O)[O-])s1`, the AC40 was 1.54 µM.
`COC1=C(NS(=O)(=O)c2cccs2)C(=O)c2ccccc2C1=O` was tested, and the AC40 was 9.01 µM.
Work on `O=C1C=C(NS(=O)(=O)c2ccc(Br)cc2)C(=O)c2ccccc21` yielded an AC40 of 7.25 µM.
Molecule `O=C1C=C(Nc2ccc([N+](=O)[O-])c(C(F)(F)F)c2)C(=O)c2ccccc21` has an AC40 of 1.05 µM.
`O=C1C(Nc2ccccc2)=C(c2ccccc2)C(=O)c2ccccc21` showed an AC40 of 10.4 µM.
For `CC(C)N1CCN(C2=C(Nc3ccc(F)cc3F)C(=O)c3ccccc3C2=O)CC1`, the AC40 was 3.67 µM.
In the case of `O=C1C=C(NS(=O)(=O)c2cccs2)C(=O)c2ccccc21`, the AC40 is reported as 4.64 µM.
Work on `O=C1C(Nc2ccc(Br)cc2)=C(N2CCCCC2)C(=O)c2ccccc21` yielded an AC40 of 12.6 µM.
In the case of `NC1=C(NS(=O)(=O)c2ccccc2)C(=O)c2ccccc2C1=O`, the AC40 is reported as 3.02 µM.
